Source: patent US12433936B2, “High-purity adrenocorticotropic hormone analogue and a large-scale preparation method thereof” (Nanjing Hanxin Pharmaceutical Technology Co., Ltd., priority 2021, dated 2025)
pEC50, pIC50: −log10 of the molar value. No end group written: not given here.

Columns and labels:
[1] = molecular target: T1, melanocortin receptor 2 (MC2R) (Homo sapiens, UniProt Q01718); test: Activity in vitro: calcium ion signal in CHO-K1 cells expressing MC2R; assay type: cell-based; conditions: for Binding ability to MC2R and biological activity (in words) / Bottom / HillSlope / Top / pEC50: CHO-K1 cells expressing MC2R; for Bottom / HillSlope / Top: curve fit; for Bottom / HillSlope / Top / pEC50: calcium ion signal; for pEC50: read-out: EC50 (half inhibitory concentration)
T1 construct: expressed in transfected cells; host or cells: CHO-K1
Experimental: ACTH was a receptor agonist of melanocortin receptor 2 (MC2R). The combination of ACTH and MC2R could stimulate the signal pathway of the downstream and change the signal factors such as calcium ions and cAMP. The binding ability of ACTH and MC2R was determined by detecting calcium ion signals, and then the cell activity of ACTH in vitro was judged.
The samples in example 8 and example 10 were taken for activity study in vitro. CHO-K1 cells expressing MC2R were cultured in 10 cm vessels and stored at 37° C. and 5% CO2.

[2] = Study of stability, packed samples stored at 2-8° C. for 6 months; assay type: physicochemical; conditions: for Conclusion: Character / Conclusion: Moisture / Conclusion: Polymer / Conclusion: Related substances (maximum single impurity) / Conclusion: The purity of chromatographic: up to 6 months
Experimental: The samples prepared in example 8 were packed in double-layer medical low-density polyethylene bags and a layer of aluminum-plastic composite bags and stored at 2-8° C. for evaluation at 1, 2, 3 and 6 months respectively.
The samples prepared in example 9 were packed in double-layer medical low-density polyethylene bags and a layer of aluminum-plastic composite bags and stored at 2-8° C. for evaluation at 1, 2, 3 and 6 months respectively.

[3] = test system: infantile spasticity (IS) rat model; test: Incubation period of spasticity in infantile spasticity (IS) rat model (betamethasone/NMDA); assay type: in vivo, Sprague Dawley (SD) rats
Experimental: (1) Method: To investigate the effect of SEQ ID NO.4 on the incubation period of spasticity in infantile spasticity (IS) rat model.
Incubation period: Time from NMDA injection to onset of spasticity (time is measured in units of seconds).
Sham group: Sprague Dawley (SD) rats were intraperitoneally injected with saline (10 mL/kg each time) at 9:00 am and 19:00 pm respectively on the 15th day of pregnancy, and the neonatal rats (n=12) were intraperitoneally injected with saline of the same volume as the drug group on the 15th day after birth. Model group (IS group): SD rats were intraperitoneally injected with betamethasone (0.4 mg/kg each time) at 9:00 am and 19:00 pm respectively on the 15th day of pregnancy. The neonatal rats (n=12) were intraperitoneally injected with N-methyl-D-aspartic acid (NMDA, 15 mg/kg) at 15:30 pm on the 15th day after birth to establish infant spasticity (neonatal spasticity) rat model, and the incubation period from NMDA injection to spasticity was recorded. […] After the second injection of SEQ ID NO.4 for 30 minutes (i.e. 15:30 pm), NMDA (15 mg/kg) was intraperitoneally injected to establish infant spasticity rat model, and the incubation period from NMDA injection to spasticity was recorded.

hERG = hERG (Homo sapiens, UniProt Q12809); test: in vitro; conditions: human
Excerpt: (§1) The cardiac […] toxicity of drugs was judged by detecting the affinity between drugs and heart receptor protein (hERG) in vitro.

[4] = molecular target: heart receptor protein (hERG) (Homo sapiens, UniProt Q12809); test: in vitro
Excerpt: as §1

T1 sequence (Q01718 whole entry, species assumed): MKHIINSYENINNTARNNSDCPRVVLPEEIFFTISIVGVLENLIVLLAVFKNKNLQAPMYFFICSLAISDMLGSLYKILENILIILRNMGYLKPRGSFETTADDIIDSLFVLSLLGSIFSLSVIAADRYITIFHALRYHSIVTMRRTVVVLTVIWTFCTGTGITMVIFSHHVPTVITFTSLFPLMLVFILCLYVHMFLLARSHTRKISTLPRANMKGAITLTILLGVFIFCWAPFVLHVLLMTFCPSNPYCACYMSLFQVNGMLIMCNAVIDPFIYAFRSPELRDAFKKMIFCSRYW
T1 sequence (Q8TCY5 whole entry partner, species assumed): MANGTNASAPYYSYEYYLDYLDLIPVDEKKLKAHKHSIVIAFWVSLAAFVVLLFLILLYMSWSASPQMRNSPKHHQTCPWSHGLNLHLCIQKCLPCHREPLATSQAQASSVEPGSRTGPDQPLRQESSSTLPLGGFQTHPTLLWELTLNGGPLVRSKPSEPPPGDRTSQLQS
heart receptor protein (hERG), sequence (Q12809 whole entry): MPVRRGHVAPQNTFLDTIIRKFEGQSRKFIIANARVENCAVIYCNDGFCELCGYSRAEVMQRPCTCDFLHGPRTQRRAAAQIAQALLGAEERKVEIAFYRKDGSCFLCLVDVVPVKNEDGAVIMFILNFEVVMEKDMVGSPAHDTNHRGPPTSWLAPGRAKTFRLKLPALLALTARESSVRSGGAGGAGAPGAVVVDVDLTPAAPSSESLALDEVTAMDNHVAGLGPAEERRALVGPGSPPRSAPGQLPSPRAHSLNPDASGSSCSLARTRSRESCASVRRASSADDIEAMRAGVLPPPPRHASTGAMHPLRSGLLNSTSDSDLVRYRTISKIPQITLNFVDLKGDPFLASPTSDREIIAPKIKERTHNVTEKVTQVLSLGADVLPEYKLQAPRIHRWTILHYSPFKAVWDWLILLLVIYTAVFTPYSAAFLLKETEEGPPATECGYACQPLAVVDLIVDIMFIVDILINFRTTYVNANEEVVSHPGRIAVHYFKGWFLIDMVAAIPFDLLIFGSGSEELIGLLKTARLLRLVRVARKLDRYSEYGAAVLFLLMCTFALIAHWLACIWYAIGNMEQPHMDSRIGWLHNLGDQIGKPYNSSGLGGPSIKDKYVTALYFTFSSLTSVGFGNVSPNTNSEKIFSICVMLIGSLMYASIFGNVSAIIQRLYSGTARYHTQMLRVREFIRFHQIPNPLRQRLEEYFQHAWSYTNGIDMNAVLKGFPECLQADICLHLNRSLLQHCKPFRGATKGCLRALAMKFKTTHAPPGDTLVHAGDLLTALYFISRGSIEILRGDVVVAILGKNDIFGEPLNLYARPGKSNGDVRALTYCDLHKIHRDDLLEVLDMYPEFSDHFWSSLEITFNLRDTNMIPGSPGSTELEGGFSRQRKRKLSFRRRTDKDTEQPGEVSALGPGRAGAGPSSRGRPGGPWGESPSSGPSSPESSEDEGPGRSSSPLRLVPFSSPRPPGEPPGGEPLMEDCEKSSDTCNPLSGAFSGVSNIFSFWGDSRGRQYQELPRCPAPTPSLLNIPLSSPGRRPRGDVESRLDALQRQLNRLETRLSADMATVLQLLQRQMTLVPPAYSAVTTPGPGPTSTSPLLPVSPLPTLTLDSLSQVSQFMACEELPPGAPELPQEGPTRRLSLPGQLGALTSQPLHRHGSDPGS
hERG, sequence (Q12809 whole entry): as above

Substance: H-SYSMEHFRWGKPVGKKRRPVKVYPNGAEDESAEAFPLEF-OH [Example 8]
- Binding ability to MC2R and biological activity (in words) [1]: had binding ability to melanocortin receptor 2 (MC2R) and showed biological activity
- Bottom [1]: −2.739
- HillSlope [1]: 0.9745
- Top [1]: 100.9
- Activity of high-purity ACTH relative to low-purity ACTH ([1]; ratio of EC50 values): 1.6 times
- Character (Visual) ([2]; 2-8° C., 1 month): White
- Moisture, Karl Fischer ([2]; 2-8° C., 1 month): 7.3%
- Polymer (impurity with molecular weight greater than the peptide), HPLC ([2]; 2-8° C., 1 month): 0.05%
- Related substances (maximum single impurity), HPLC ([2]; 2-8° C., 1 month): 0.17%
- Related substances (total impurities), HPLC ([2]; 2-8° C., 1 month): 0.29%
- The purity of chromatographic, HPLC ([2]; 2-8° C., 1 month): 99.71%
- Character (Visual) ([2]; 2-8° C., 2 months): White
- Moisture, Karl Fischer ([2]; 2-8° C., 2 months): 7.5%
- Polymer (impurity with molecular weight greater than the peptide), HPLC ([2]; 2-8° C., 2 months): 0.03%
- Related substances (maximum single impurity), HPLC ([2]; 2-8° C., 2 months): 0.17%
- Related substances (total impurities), HPLC ([2]; 2-8° C., 2 months): 0.29%
- The purity of chromatographic, HPLC ([2]; 2-8° C., 2 months): 99.71%
- Character (Visual) ([2]; 2-8° C., 3 months): White
- Moisture, Karl Fischer ([2]; 2-8° C., 3 months): 8.4%
- Polymer (impurity with molecular weight greater than the peptide), HPLC ([2]; 2-8° C., 3 months): 0.06%
- Related substances (maximum single impurity), HPLC ([2]; 2-8° C., 3 months): 0.16%
- Related substances (total impurities), HPLC ([2]; 2-8° C., 3 months): 0.38%
- The purity of chromatographic, HPLC ([2]; 2-8° C., 3 months): 99.62%
- Character (Visual) ([2]; 2-8° C., 6 months): White
- Moisture, Karl Fischer ([2]; 2-8° C., 6 months): 8.3%
- Polymer (impurity with molecular weight greater than the peptide), HPLC ([2]; 2-8° C., 6 months): 0.04%
- Related substances (maximum single impurity), HPLC ([2]; 2-8° C., 6 months): 0.11%
- Related substances (total impurities), HPLC ([2]; 2-8° C., 6 months): 0.39%
- The purity of chromatographic, HPLC ([2]; 2-8° C., 6 months): 99.61%
- Conclusion: Character ([2]; 2-8° C.): Qualified
- Conclusion: Moisture ([2]; 2-8° C.): Qualified
- Conclusion: Polymer ([2]; 2-8° C.): Qualified
- Conclusion: Related substances (maximum single impurity) ([2]; 2-8° C.): Qualified
- Conclusion: The purity of chromatographic ([2]; 2-8° C.): Qualified
- Character (Visual) ([2]; Start): White
- Moisture, Karl Fischer ([2]; Start): 5.0%
- Polymer (impurity with molecular weight greater than the peptide), HPLC ([2]; Start): 0.03%
- Related substances (maximum single impurity), HPLC ([2]; Start): 0.07%
- Related substances (total impurities), HPLC ([2]; Start): 0.13%
- The purity of chromatographic, HPLC ([2]; Start): 99.88%

Substance: H-SYSMEHFRWGKPVGKKRRPVKVYPNGAEDESAEAFPLEF-OH [Example 10, reference compound]
- Binding ability to MC2R and biological activity (in words) [1]: had binding ability to melanocortin receptor 2 (MC2R) and showed biological activity
- Bottom [1]: −1.846
- HillSlope [1]: 1.249
- Top [1]: 94.88

Substance: SYSMEHFRWGKPVGKKRRPVKVYPDGAEDESAEAFPLEF (also: deamidated at N25 (given as D), Asp or isoAsp not given here) [Example 9]
- Incubation period of spasticity vs IS group ([3]; high-dose group 0.28 U/g i.p. twice, neonatal rats day 15, P<0.0001): significantly prolong
- Incubation period of spasticity vs IS group ([3]; low-dose group 0.01 U/g i.p. twice, neonatal rats day 15, p<0.001): significantly prolong
- Character (Visual) ([2]; 2-8° C., 1 month): White
- Moisture, Karl Fischer ([2]; 2-8° C., 1 month): 7.5%
- Polymer (impurity with molecular weight greater than the peptide), HPLC ([2]; 2-8° C., 1 month): 0.04%
- Related substances (maximum single impurity), HPLC ([2]; 2-8° C., 1 month): 0.24%
- Related substances (total impurities), HPLC ([2]; 2-8° C., 1 month): 0.42%
- The purity of chromatographic, HPLC ([2]; 2-8° C., 1 month): 99.58%
- Character (Visual) ([2]; 2-8° C., 2 months): White
- Moisture, Karl Fischer ([2]; 2-8° C., 2 months): 7.6%
- Polymer (impurity with molecular weight greater than the peptide), HPLC ([2]; 2-8° C., 2 months): 0.05%
- Related substances (maximum single impurity), HPLC ([2]; 2-8° C., 2 months): 0.17%
- Related substances (total impurities), HPLC ([2]; 2-8° C., 2 months): 0.43%
- The purity of chromatographic, HPLC ([2]; 2-8° C., 2 months): 99.57%
- Character (Visual) ([2]; 2-8° C., 3 months): White
- Moisture, Karl Fischer ([2]; 2-8° C., 3 months): 8.5%
- Polymer (impurity with molecular weight greater than the peptide), HPLC ([2]; 2-8° C., 3 months): 0.06%
- Related substances (maximum single impurity), HPLC ([2]; 2-8° C., 3 months): 0.27%
- Related substances (total impurities), HPLC ([2]; 2-8° C., 3 months): 0.46%
- The purity of chromatographic, HPLC ([2]; 2-8° C., 3 months): 99.54%
- Character (Visual) ([2]; 2-8° C., 6 months): White
- Moisture, Karl Fischer ([2]; 2-8° C., 6 months): 8.6%
- Polymer (impurity with molecular weight greater than the peptide), HPLC ([2]; 2-8° C., 6 months): 0.06%
- Related substances (maximum single impurity), HPLC ([2]; 2-8° C., 6 months): 0.10%
- Related substances (total impurities), HPLC ([2]; 2-8° C., 6 months): 0.49%
- Stability under the storage condition (in words) ([2]; 2-8° C., 6 months): stable
- The purity of chromatographic, HPLC ([2]; 2-8° C., 6 months): 99.51%
- Conclusion: Character ([2]; 2-8° C.): Qualified
- Conclusion: Moisture ([2]; 2-8° C.): Qualified
- Conclusion: Polymer ([2]; 2-8° C.): Qualified
- Conclusion: Related substances (maximum single impurity) ([2]; 2-8° C.): Qualified
- Conclusion: The purity of chromatographic ([2]; 2-8° C.): Qualified
- Character (Visual) ([2]; Start): White
- Moisture, Karl Fischer ([2]; Start): 5.2%
- Polymer (impurity with molecular weight greater than the peptide), HPLC ([2]; Start): 0.03%
- Related substances (maximum single impurity), HPLC ([2]; Start): 0.16%
- Related substances (total impurities), HPLC ([2]; Start): 0.42%
- The purity of chromatographic, HPLC ([2]; Start): 99.58%

Substance: SYSMEHFRWGKPVGKKRRPVKVYPNGAEDESAEAFPLEF [Example 8]
- inhibition at 10000 nM (hERG): -1.28%
- Cardiac metabolic toxicity (in words) [4]: no cardiac metabolic toxicity
- pIC50 [4]: < 5.00
- pEC50 [1]: 6.74
- Stability under the storage condition (in words) ([2]; 2-8° C., 6 months): stable

Substance: SYSMEHFRWGKPVGKKRRPVKVYPNGAEDESAEAFPLEF [Example 10, reference compound]
- Cardiac metabolic toxicity (in words) [4]: no cardiac metabolic toxicity
- pEC50 [1]: 6.54
